For the assay, the system named is HIV-1 (HIVIIIB) replication in MT2 cell line. As to the kind of experiment: HIV-1 replication in MT2 cell line with and without 30% human serum (viral RT activity in supernatant). In kind it is cell-based. To be noted: Human immunodeficiency virus 1, MT2 cells, average IC50 if tested more than once. In a few lines: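 Read-out is supernatant reverse transcriptase activity on day 5 post-infection, giving IC50 and IC90. Compounds were titrated in complete medium ± 30% human serum, re-dosed after 3 days, on MT2 cells exposed for 3 h to HIVIIIB at MOI 0.5 then washed.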

Where [1] appears, read: with 30% human serum, read-out: MT2 (HIVIIIB) with HS 30% IC50 range.
The mark [2] stands for this setting: without human serum, read-out: MT2 (HIVIIIB) IC50 range.

Where two headings read alike, the source gives them in different places. Bounds are passed on as bounds.

Usually IC50 stands for the point on the concentration scale where inhibition reaches its midpoint.

Take `CC(C)C1=C2C3CCC4[C@@]5(C)CC[C@H](OC(=O)CC(C)(C)C(=O)O)C(C)(C)C5CC[C@@]4(C)[C@]3(C)CC[C@@]2(NC(=O)NCc2ncccn2)CC1=O` (stereo partly drawn) [17-67, 3β-O-(3′,3′-Dimethylsuccinyl)-17β-[N′-(pyrimidin-2-ylmethyl)ureido]-21-oxolup-18-ene]: the IC50 under setting [1] is < 0.199 µM.
On the same count and under the same terms, as for `CC(C)C1=C2C3CCC4[C@@]5(C)CC[C@H](OC(=O)CC(C)(C)C(=O)O)C(C)(C)C5CC[C@@]4(C)[C@]3(C)CC[C@@]2(NC(=O)NCc2cncnc2)CC1=O` (stereo partly drawn) [17-68, 3β-O-(3′,3′-Dimethylsuccinyl)-17β-[N′-(pyrimidin-5-ylmethyl)ureido]-21-oxolup-18-ene], the figure is < 0.199 µM; as for `CC(C)C1=C2C3CCC4[C@@]5(C)CC[C@H](OC(=O)CC(C)(C)C(=O)O)C(C)(C)C5CC[C@@]4(C)[C@]3(C)CC[C@@]2(NC(=O)NC2(c3ccccn3)CC2)CC1=O` (stereo partly drawn) [17-69, 3β-O-(3′,3′-Dimethylsuccinyl)-17β-[N′-(1-pyridin-2-yl-cyclopropyl)-ureido]-21-oxolup-18-ene], < 0.199 µM.
The same measure, in the same setting: under `CC(C)C1=C2C3CCC4[C@@]5(C)CC[C@H](OC(=O)CC(C)(C)C(=O)O)C(C)(C)C5CC[C@@]4(C)[C@]3(C)CC[C@@]2(NC(=O)NC(C)(C)C2CCCCC2)CC1=O` (stereo partly drawn) [17-70, 3β-O-(3′,3′-Dimethylsuccinyl)-17β-[N′-(1-methyl-1-cyclohexyl-ethyl)-ureido]-21-oxolup-18-ene] stands > 1 µM; under `CC(C)C1=C2C3CCC4[C@@]5(C)CC[C@H](OC(=O)CC(C)(C)C(=O)O)C(C)(C)C5CC[C@@]4(C)[C@]3(C)CC[C@@]2(NC(=O)NC(C)c2ccccn2)CC1=O` (stereo partly drawn) [17-72, 3β-O-(3′,3′-Dimethylsuccinyl)-17β-[N′-(1-pyridin-2-yl-ethyl)-ureido]-21-oxolup-18-ene], < 0.199 µM; under `CC(C)C1=C2[C@H]3CC[C@@H]4[C@@]5(C)CC[C@H](OC(=O)CC(C)(C)C(=O)O)C(C)(C)[C@@H]5CC[C@@]4(C)[C@]3(C)CC[C@@]2(NC(=O)NCc2nccn2C)CC1=O` [17-73, 3β-O-(3′,3′-Dimethylsuccinyl)-17β-[N′-(1-methyl-1H-imidazol-2-yl-methyl)-ureido]-21-oxolup-18-ene], < 0.199 µM.
Still for that read-out and setting: under `CC(C)C1=C2[C@H]3CC[C@@H]4[C@@]5(C)CC[C@H](OC(=O)CC(C)(C)C(=O)O)C(C)(C)[C@@H]5CC[C@@]4(C)[C@]3(C)CC[C@@]2(NC(=O)NCc2nncn2C)CC1=O` [17-74, 3β-O-(3′,3′-Dimethylsuccinyl)-17β-[N′-(4-methyl-4H-[1,2,4]triazol-3-yl-methyl)-ureido]-21-oxolup-18-ene] stands > 1 µM.
`CC(C)C1=C2C3CCC4[C@@]5(C)CC[C@H](OC(=O)CC(C)(C)C(=O)O)C(C)(C)C5CC[C@@]4(C)[C@]3(C)CC[C@@]2(NC(=O)NCc2ccsc2)CC1=O` (stereo partly drawn) [17-75, 3β-O-(3′,3′-Dimethylsuccinyl)-17β-[N′-(thiophen-3-ylmethyl)-ureido]-21-oxolup-18-ene]: the IC50 under setting [1] is < 0.199 µM.
Consider `CC(C)C1=C2[C@H]3CC[C@@H]4[C@@]5(C)CC[C@H](OC(=O)CC(C)(C)C(=O)O)C(C)(C)[C@@H]5CC[C@@]4(C)[C@]3(C)CC[C@@]2(NC(=O)NCc2ccnn2C)CC1=O` [17-76, 3β-O-(3′,3′-Dimethylsuccinyl)-17β-[N′-(2-methyl-2H-pyrazol-3-yl-methyl)-ureido]-21-oxolup-18-ene], for which, under setting [1], the IC50 is < 0.199 µM.
Take `CC(C)C1=C2[C@H]3CC[C@@H]4[C@@]5(C)CC[C@H](OC(=O)CC(C)(C)C(=O)O)C(C)(C)[C@@H]5CC[C@@]4(C)[C@]3(C)CC[C@@]2(NS(C)(=O)=O)CC1=O` [18-1, 3β-O-(3′,3′-Dimethylsuccinyl)-17β-methylsulfonylamino-21-oxolup-18-ene]: the half-inhibitory concentration (IC50) is, setting by setting: under setting [1], < 0.199 µM; under setting [2], < 0.199 µM.
On to `CC(=O)N[C@@]12CC[C@]3(C)[C@H](CC[C@@H]4[C@@]5(C)CC[C@H](OC(=O)CC(C)(C)C(=O)O)C(C)(C)[C@@H]5CC[C@]43C)C1=C(C(C)C)C(=O)C2` [19-1, 3β-O-(3′,3′-Dimethylsuccinyl)-17β-acetylamino-21-oxolup-18-ene], for which the IC50 is, setting by setting: under setting [1], < 0.199 µM; under setting [2], < 0.199 µM.
For the molecule `CC(C)C1=C2[C@H]3CC[C@@H]4[C@@]5(C)CC[C@H](OC(=O)CC(C)(C)C(=O)O)C(C)(C)[C@@H]5CC[C@@]4(C)[C@]3(C)CC[C@@]2(NC(=O)c2ccccc2)CC1=O` [19-2, 3β-O-(3′,3% Dimethylsuccinyl)-17β-benzamido-21-oxolup-18-ene], the IC50 reads like this: under setting [1], < 0.199 µM; under setting [2], < 0.199 µM.
On to `CC(C)C1=C2[C@H]3CC[C@@H]4[C@@]5(C)CC[C@H](OC(=O)CC(C)(C)C(=O)O)C(C)(C)[C@@H]5CC[C@@]4(C)[C@]3(C)CC[C@@]2(NC(=O)CC(C)(C)C(=O)O)CC1=O` [19-3, 3β-O,17β-N-bis(3′,3′-dimethylsuccinyl)-21-oxolup-18-ene], for which, under setting [2], the IC50 is < 0.199 µM.
For the molecule `Cc1nnc(C(=O)N[C@@]23CC[C@]4(C)[C@H](CC[C@@H]5[C@@]6(C)CC[C@H](OC(=O)CC(C)(C)C(=O)O)C(C)(C)[C@@H]6CC[C@]54C)C2=C(C(C)C)C(=O)C3)o1` [19-4, 3β-O-(3′,3′-Dimethylsuccinyl)-17β-(5-methyl-[1,3,4]oxadiazole-2-amido)-21-oxolup-18-ene], the IC50 under setting [1] was < 0.199 µM and the 50% inhibitory concentration (IC50) under setting [2] is < 0.199 µM.
Take `CC(C)C1=C2[C@H]3CC[C@@H]4[C@@]5(C)CC[C@H](OC(=O)CC(C)(C)C(=O)O)C(C)(C)[C@@H]5CC[C@@]4(C)[C@]3(C)CC[C@@]2(NC(=O)C2CCN(C(=O)OC(C)(C)C)CC2)CC1=O` [19-5, 3β-O-(3′,3′-Dimethylsuccinyl)-17β-(1-tert-butyloxycarbonylpiperidine-4-amido)-21-oxolup-18-ene]: the half-inhibitory concentration (IC50) by setting is: under setting [1], < 0.199 µM; under setting [2], < 0.199 µM.
As to `CC(C)C1=C2[C@H]3CC[C@@H]4[C@@]5(C)CC[C@H](OC(=O)CC(C)(C)C(=O)O)C(C)(C)[C@@H]5CC[C@@]4(C)[C@]3(C)CC[C@@]2(NC(=O)C2CCNCC2)CC1=O` [19-6, 3β-O-(3′,3′-Dimethylsuccinyl)-17β-(piperidine-4-amido)-21-oxolup-18-ene], the IC50 is, setting by setting: under setting [1], > 1 µM; under setting [2], < 0.199 µM.
On to `CC(=O)N1CCC(C(=O)N[C@@]23CC[C@]4(C)[C@H](CC[C@@H]5[C@@]6(C)CC[C@H](OC(=O)CC(C)(C)C(=O)O)C(C)(C)[C@@H]6CC[C@]54C)C2=C(C(C)C)C(=O)C3)CC1` [19-7, 3β-O-(3′,3′-Dimethylsuccinyl)-17β-(1-acetylpiperidine-4-amido)-21-oxolup-18-ene], for which the IC50 was < 0.199 µM under setting [1] and < 0.199 µM under setting [2].
Regarding `CC(C)C1=C2[C@H]3CC[C@@H]4[C@@]5(C)CC[C@H](OC(=O)CC(C)(C)C(=O)O)C(C)(C)[C@@H]5CC[C@@]4(C)[C@]3(C)CC[C@@]2(NC(=O)c2cccnc2)CC1=O` [19-8, 3β-O-(3′,3′-Dimethylsuccinyl)-17β-(pyridin-3-yl)amido-21-oxolup-18-ene], the IC50 under setting [1] was < 0.199 µM and the half-maximal inhibitory concentration (IC50) under setting [2] was < 0.199 µM.
As for `CC(C)C1=C2[C@H]3CC[C@@H]4[C@@]5(C)CC[C@H](OC(=O)CC(C)(C)C(=O)O)C(C)(C)[C@@H]5CC[C@@]4(C)[C@]3(C)CC[C@@]2(NC(=O)Cc2ccc(F)cc2)CC1=O` [19-9, 3β-O-(3′,3′-Dimethylsuccinyl)-17β-(4-fluorobenzyl)amido-21-oxolup-18-ene], the IC50 reads like this: under setting [1], < 0.199 µM; under setting [2], < 0.199 µM.

The values are drawn from patent US8269026B2, “Lupane derivatives useful for treating HIV” (priority 2008, dated 2012).
